Measured values from the kinase profiling compilation of Christmann-Franck et al. (2016).

What was measured:
Assay in all cases: KINOMEscan competition binding
Details in all cases: compound 10.0 µM
MAP4K4 (human) = MAP4K4 (human) (UniProt O95819)
PRKAA1 (human) = PRKAA1 (human) (UniProt Q13131)
RPS6KA1 KD1 (human) = RPS6KA1 KD1 (human) (UniProt Q15418)
MAPK13 (human) = MAPK13 (human) (UniProt O15264)
SRMS (human) = SRMS (human) (UniProt Q9H3Y6)
CDC42BPB (human) = CDC42BPB (human) (UniProt Q9Y5S2)
CSNK2A2 (human) = CSNK2A2 (human) (UniProt P19784)
[1] = molecular target: TYK2 JH1 catalytic (human) (UniProt P29597)
CAMK4 (human) = CAMK4 (human) (UniProt Q16566)
PRKG2 (human) = PRKG2 (human) (UniProt Q13237)
BMPR1B (human) = BMPR1B (human) (UniProt O00238)
PAK2 (human) = PAK2 (human) (UniProt Q13177)
TNNI3K (human) = TNNI3K (human) (UniProt Q59H18)
[2] = system: KIT (human), P10721 [V559D]
CHUK (human) = CHUK (human) (UniProt O15111)
LTK (human) = LTK (human) (UniProt P29376)
NLK (human) = NLK (human) (UniProt Q9UBE8)
ACVR1 (human) = ACVR1 (human) (UniProt Q04771)
CAMK1G (human) = CAMK1G (human) (UniProt Q96NX5)
RAF1 (human) = RAF1 (human) (UniProt P04049)
TAOK3 (human) = TAOK3 (human) (UniProt Q9H2K8)
TAOK3 (human), sequence (Q9H2K8 whole entry, looked up): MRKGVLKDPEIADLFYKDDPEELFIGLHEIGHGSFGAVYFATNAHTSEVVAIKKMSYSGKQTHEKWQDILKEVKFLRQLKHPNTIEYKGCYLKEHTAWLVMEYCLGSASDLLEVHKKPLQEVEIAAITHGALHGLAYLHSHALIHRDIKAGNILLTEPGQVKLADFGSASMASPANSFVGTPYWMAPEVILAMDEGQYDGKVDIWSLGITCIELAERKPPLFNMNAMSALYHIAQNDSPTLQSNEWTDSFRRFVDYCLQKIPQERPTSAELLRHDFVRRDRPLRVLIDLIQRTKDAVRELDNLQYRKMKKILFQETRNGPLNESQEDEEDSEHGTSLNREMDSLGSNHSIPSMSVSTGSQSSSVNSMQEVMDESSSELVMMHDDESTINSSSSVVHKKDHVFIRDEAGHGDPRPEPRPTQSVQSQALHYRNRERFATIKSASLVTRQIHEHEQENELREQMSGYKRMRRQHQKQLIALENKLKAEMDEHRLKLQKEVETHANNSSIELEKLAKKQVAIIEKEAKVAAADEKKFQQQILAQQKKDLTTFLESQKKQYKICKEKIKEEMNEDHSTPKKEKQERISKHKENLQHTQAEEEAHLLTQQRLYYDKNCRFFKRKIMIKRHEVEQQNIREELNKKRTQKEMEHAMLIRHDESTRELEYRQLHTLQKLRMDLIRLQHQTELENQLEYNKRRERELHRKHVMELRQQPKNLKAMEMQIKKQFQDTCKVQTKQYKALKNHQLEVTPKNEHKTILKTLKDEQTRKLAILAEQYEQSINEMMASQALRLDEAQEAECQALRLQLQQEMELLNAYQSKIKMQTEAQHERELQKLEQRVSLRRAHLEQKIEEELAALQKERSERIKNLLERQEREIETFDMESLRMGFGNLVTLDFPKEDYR

CAMKK1 (human) = CAMKK1 (human) (UniProt Q8N5S9)
RPS6KA1 KD2 (human) = RPS6KA1 KD2 (human) (UniProt Q15418)
TTK (human) = TTK (human) (UniProt P33981)
TLK1 (human) = TLK1 (human) (UniProt Q9UKI8)
PHKG1 (human) = PHKG1 (human) (UniProt Q16816)
PHKG1 (human), sequence (Q16816 whole entry, looked up): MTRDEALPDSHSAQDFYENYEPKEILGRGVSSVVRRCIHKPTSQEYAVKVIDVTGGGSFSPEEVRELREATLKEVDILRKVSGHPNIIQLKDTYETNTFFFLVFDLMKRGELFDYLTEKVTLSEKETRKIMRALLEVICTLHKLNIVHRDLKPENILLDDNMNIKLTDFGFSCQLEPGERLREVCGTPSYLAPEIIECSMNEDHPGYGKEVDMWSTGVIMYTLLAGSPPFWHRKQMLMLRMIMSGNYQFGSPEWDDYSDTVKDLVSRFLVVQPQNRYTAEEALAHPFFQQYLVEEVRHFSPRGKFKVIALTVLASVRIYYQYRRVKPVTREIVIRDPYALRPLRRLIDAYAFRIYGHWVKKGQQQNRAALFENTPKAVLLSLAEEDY

CDC42BPG (human) = CDC42BPG (human) (UniProt Q6DT37)
CDC42BPG (human), sequence (Q6DT37 whole entry, looked up): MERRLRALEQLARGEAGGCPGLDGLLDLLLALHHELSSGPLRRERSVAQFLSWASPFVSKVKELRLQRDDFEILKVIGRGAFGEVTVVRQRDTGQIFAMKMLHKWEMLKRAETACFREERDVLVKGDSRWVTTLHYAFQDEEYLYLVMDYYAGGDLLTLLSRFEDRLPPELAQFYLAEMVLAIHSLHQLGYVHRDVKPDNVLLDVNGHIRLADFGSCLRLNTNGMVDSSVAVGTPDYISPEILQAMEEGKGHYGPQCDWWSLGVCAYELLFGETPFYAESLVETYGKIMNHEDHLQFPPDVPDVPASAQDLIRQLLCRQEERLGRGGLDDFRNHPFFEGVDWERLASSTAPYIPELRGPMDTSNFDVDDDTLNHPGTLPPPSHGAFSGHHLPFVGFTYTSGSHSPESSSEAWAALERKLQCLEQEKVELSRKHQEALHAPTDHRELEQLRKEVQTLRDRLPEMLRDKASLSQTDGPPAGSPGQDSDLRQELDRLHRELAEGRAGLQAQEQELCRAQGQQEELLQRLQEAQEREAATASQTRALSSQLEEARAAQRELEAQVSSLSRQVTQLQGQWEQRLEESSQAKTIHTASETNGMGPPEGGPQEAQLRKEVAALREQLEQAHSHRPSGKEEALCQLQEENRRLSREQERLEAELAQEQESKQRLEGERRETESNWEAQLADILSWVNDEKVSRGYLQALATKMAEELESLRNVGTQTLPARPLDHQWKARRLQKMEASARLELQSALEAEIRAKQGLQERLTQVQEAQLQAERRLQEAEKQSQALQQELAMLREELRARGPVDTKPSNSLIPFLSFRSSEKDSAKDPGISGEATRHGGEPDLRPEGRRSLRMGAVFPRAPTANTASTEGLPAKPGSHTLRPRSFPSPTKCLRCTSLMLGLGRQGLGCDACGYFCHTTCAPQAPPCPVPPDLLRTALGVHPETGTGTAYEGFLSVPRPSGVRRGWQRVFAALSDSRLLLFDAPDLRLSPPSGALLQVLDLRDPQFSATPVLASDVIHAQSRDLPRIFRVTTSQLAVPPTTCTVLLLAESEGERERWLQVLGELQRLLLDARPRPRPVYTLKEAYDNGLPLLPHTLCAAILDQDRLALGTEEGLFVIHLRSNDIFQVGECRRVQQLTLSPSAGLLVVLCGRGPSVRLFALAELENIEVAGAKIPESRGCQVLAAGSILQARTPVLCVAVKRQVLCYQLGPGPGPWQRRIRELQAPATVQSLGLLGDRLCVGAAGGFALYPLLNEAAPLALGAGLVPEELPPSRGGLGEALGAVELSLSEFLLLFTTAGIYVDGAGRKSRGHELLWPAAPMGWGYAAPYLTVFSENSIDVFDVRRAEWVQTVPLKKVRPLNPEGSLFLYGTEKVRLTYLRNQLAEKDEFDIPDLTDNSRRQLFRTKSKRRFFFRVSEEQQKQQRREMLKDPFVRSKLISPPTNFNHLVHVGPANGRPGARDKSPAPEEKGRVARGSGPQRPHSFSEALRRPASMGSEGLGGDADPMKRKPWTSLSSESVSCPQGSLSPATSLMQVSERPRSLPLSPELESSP

TNK2 (human) = TNK2 (human) (UniProt Q07912)
EPHA3 (human) = EPHA3 (human) (UniProt P29320)
TSSK1B (human) = TSSK1B (human) (UniProt Q9BXA7)
TSSK1B (human), sequence (Q9BXA7 whole entry, looked up): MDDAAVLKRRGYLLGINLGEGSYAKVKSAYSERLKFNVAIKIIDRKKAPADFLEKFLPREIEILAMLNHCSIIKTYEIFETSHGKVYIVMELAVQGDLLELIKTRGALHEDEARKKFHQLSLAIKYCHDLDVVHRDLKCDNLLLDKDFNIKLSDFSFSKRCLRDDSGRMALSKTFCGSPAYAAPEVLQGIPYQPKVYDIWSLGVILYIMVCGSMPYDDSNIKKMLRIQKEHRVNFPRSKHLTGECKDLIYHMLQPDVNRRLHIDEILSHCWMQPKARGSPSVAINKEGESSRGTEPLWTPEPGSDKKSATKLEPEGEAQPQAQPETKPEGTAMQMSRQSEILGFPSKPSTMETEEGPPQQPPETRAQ

TESK1 (human) = TESK1 (human) (UniProt Q15569)
EPHA1 (human) = EPHA1 (human) (UniProt P21709)
SIK1 (human) = SIK1 (human) (UniProt P57059)
EIF2AK2 (human) = EIF2AK2 (human) (UniProt P19525)
EIF2AK2 (human), sequence (P19525 whole entry, looked up): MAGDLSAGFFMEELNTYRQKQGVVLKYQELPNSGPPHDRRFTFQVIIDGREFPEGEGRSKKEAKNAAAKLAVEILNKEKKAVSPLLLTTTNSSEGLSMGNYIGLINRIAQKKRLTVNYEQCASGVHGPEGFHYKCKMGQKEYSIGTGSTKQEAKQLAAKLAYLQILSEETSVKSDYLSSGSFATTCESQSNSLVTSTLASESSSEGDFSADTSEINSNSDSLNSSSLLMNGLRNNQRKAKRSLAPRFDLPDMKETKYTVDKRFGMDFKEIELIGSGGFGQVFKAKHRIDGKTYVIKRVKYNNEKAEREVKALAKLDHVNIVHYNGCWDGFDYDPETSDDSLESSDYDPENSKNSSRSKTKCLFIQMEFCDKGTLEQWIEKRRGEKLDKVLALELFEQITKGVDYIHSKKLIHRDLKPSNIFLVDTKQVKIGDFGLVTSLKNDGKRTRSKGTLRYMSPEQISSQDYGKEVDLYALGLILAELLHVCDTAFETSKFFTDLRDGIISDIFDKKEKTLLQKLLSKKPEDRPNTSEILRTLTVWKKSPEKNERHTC

PRKCQ (human) = PRKCQ (human) (UniProt Q04759)
SRPK3 (human) = SRPK3 (human) (UniProt Q9UPE1)
CSNK1A1L (human) = CSNK1A1L (human) (UniProt Q8N752)
CSNK1A1L (human), sequence (Q8N752 whole entry, looked up): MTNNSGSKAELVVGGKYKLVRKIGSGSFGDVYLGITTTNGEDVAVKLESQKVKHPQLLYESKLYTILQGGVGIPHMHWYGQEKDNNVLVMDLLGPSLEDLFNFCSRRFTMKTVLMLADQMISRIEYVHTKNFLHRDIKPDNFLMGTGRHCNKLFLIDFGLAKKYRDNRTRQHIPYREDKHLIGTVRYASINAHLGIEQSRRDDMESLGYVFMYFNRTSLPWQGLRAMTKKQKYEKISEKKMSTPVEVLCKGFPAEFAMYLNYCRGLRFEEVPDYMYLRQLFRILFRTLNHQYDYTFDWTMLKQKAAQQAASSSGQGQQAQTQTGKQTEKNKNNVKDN

PRKD2 (human) = PRKD2 (human) (UniProt Q9BZL6)
PRKCD (human) = PRKCD (human) (UniProt Q05655)
EPHB4 (human) = EPHB4 (human) (UniProt P54760)
EPHB4 (human), sequence (P54760 whole entry, looked up): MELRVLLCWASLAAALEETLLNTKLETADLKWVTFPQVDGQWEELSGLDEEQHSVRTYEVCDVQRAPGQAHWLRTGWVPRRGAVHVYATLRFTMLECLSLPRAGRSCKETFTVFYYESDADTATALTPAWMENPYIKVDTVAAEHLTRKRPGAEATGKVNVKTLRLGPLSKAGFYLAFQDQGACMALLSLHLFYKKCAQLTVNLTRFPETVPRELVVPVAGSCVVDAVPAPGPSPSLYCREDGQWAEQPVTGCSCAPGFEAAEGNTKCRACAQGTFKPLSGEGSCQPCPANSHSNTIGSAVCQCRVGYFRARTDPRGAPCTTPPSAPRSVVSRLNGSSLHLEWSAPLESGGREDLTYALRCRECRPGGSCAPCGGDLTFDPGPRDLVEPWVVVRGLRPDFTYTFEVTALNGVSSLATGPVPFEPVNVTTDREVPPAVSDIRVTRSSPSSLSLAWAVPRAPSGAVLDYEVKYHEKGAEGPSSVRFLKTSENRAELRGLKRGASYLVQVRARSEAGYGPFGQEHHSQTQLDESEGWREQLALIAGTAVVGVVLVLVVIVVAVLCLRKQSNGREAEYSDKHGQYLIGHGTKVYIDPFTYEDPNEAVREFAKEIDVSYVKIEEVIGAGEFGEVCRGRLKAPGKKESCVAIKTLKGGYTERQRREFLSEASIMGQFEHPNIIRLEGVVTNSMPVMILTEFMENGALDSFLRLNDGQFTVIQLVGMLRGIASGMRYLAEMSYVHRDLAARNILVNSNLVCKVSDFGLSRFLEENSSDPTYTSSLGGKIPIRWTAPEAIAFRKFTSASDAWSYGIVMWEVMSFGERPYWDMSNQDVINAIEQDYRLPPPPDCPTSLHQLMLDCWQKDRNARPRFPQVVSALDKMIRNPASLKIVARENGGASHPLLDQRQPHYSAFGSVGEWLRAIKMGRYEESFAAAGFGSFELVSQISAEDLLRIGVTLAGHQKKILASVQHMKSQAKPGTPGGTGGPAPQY

| Structure (SMILES) | kinase still bound, per cent of control (MAP4K4 (human)) | kinase still bound, per cent of control (PRKAA1 (human)) | kinase still bound, per cent of control (RPS6KA1 KD1 (human)) | kinase still bound, per cent of control (MAPK13 (human)) | kinase still bound, per cent of control (SRMS (human)) | kinase still bound, per cent of control (CDC42BPB (human)) | kinase still bound, per cent of control (CSNK2A2 (human)) | kinase still bound, per cent of control [1] | kinase still bound, per cent of control (CAMK4 (human)) | kinase still bound, per cent of control (PRKG2 (human)) | kinase still bound, per cent of control (BMPR1B (human)) | kinase still bound, per cent of control (PAK2 (human)) | kinase still bound, per cent of control (TNNI3K (human)) | kinase still bound, per cent of control [2] | kinase still bound, per cent of control (CHUK (human)) | kinase still bound, per cent of control (LTK (human)) | kinase still bound, per cent of control (NLK (human)) | kinase still bound, per cent of control (ACVR1 (human)) | kinase still bound, per cent of control (CAMK1G (human)) | kinase still bound, per cent of control (RAF1 (human)) | other results |
| --- | --- | --- | --- | --- | --- | --- | --- | --- | --- | --- | --- | --- | --- | --- | --- | --- | --- | --- | --- | --- | --- |
| O=C(NC1CC1)c1cccc(-c2ccc3c(NC(=O)C4CC4)n[nH]c3c2)c1 | 84% | 60% | 81% | 5% | 93% | 76% | 16% | 40% | 100% | 72% | 91% | 69% | 92% | 4.8% | 76% | 100% | 31% | 48% | 75% | 78% | kinase still bound, per cent of control (TAOK3 (human)): 33%; kinase still bound, per cent of control (CAMKK1 (human)): 37%; kinase still bound, per cent of control (RPS6KA1 KD2 (human)): 68%; kinase still bound, per cent of control (TTK (human)): 42%; kinase still bound, per cent of control (TLK1 (human)): 51%; kinase still bound, per cent of control (PHKG1 (human)): 76%; kinase still bound, per cent of control (CDC42BPG (human)): 62%; kinase still bound, per cent of control (TNK2 (human)): 100%; kinase still bound, per cent of control (EPHA3 (human)): 64%; kinase still bound, per cent of control (TSSK1B (human)): 69%; kinase still bound, per cent of control (TESK1 (human)): 100%; kinase still bound, per cent of control (EPHA1 (human)): 98%; kinase still bound, per cent of control (SIK1 (human)): 84%; kinase still bound, per cent of control (EIF2AK2 (human)): 85%; kinase still bound, per cent of control (PRKCQ (human)): 100%; kinase still bound, per cent of control (SRPK3 (human)): 10%; kinase still bound, per cent of control (CSNK1A1L (human)): 100%; kinase still bound, per cent of control (PRKD2 (human)): 100%; kinase still bound, per cent of control (PRKCD (human)): 100%; kinase still bound, per cent of control (EPHB4 (human)): 100% |
| CN(C)C/C=C/C(=O)Nc1cccc(Nc2ncc3c(n2)N(C)c2ccccc2C(=O)N3C)c1 | 50% | 0.45% | 67% | 61% | 57% | 100% | 87% | 5% | 100% | 81% | 84% | 67% | 28% | 54% | 100% | 100% | 36% | 45% | 52% | 96% | kinase still bound, per cent of control (TAOK3 (human)): 0%; kinase still bound, per cent of control (CAMKK1 (human)): 39%; kinase still bound, per cent of control (RPS6KA1 KD2 (human)): 39%; kinase still bound, per cent of control (TTK (human)): 28%; kinase still bound, per cent of control (TLK1 (human)): 100%; kinase still bound, per cent of control (PHKG1 (human)): 69%; kinase still bound, per cent of control (CDC42BPG (human)): 100%; kinase still bound, per cent of control (TNK2 (human)): 4.4%; kinase still bound, per cent of control (EPHA3 (human)): 43%; kinase still bound, per cent of control (TSSK1B (human)): 53%; kinase still bound, per cent of control (TESK1 (human)): 100%; kinase still bound, per cent of control (EPHA1 (human)): 55%; kinase still bound, per cent of control (SIK1 (human)): 2.7%; kinase still bound, per cent of control (EIF2AK2 (human)): 75%; kinase still bound, per cent of control (PRKCQ (human)): 83%; kinase still bound, per cent of control (SRPK3 (human)): 63%; kinase still bound, per cent of control (CSNK1A1L (human)): 100%; kinase still bound, per cent of control (PRKD2 (human)): 36%; kinase still bound, per cent of control (PRKCD (human)): 100%; kinase still bound, per cent of control (EPHB4 (human)): 83% |
| CCN1CCN(Cc2ccc(Nc3ncc4c(n3)N(C)c3ccccc3C(=O)N4C)cc2C(F)(F)F)CC1 | 81% | 2.4% | 100% | 100% | 54% | 99% | 100% | 2% | 100% | 86% | 53% | 78% | 78% | 56% | 100% | 100% | 56% | 52% | 61% | 100% | kinase still bound, per cent of control (TAOK3 (human)): 0.1%; kinase still bound, per cent of control (CAMKK1 (human)): 79%; kinase still bound, per cent of control (RPS6KA1 KD2 (human)): 23%; kinase still bound, per cent of control (TTK (human)): 77%; kinase still bound, per cent of control (TLK1 (human)): 74%; kinase still bound, per cent of control (PHKG1 (human)): 100%; kinase still bound, per cent of control (CDC42BPG (human)): 92%; kinase still bound, per cent of control (TNK2 (human)): 24%; kinase still bound, per cent of control (EPHA3 (human)): 100%; kinase still bound, per cent of control (TSSK1B (human)): 49%; kinase still bound, per cent of control (TESK1 (human)): 73%; kinase still bound, per cent of control (EPHA1 (human)): 61%; kinase still bound, per cent of control (SIK1 (human)): 27%; kinase still bound, per cent of control (EIF2AK2 (human)): 95%; kinase still bound, per cent of control (PRKCQ (human)): 100%; kinase still bound, per cent of control (SRPK3 (human)): 57%; kinase still bound, per cent of control (CSNK1A1L (human)): 74%; kinase still bound, per cent of control (PRKD2 (human)): 25%; kinase still bound, per cent of control (PRKCD (human)): 100%; kinase still bound, per cent of control (EPHB4 (human)): 93% |
